Laboratory results: patent US8632914B2, “Triazolium and imidazolium salts and uses thereof” (University Health Network, priority 2008, dated 2014)

Legend:
P. falciparum = assay: Anti-Plasmodium activity: viability of P. falciparum cultures (pLDH enzyme assay); type: cell-based; settings: strain line ItG, 72 hr incubation, pLDH assay, mean of four determinations ± standard error, read-out: IC50 (μM) P. falciparum
Description: P. falciparum cultures were grown in O+ blood obtained by venipuncture of volunteers. Cultures of the laboratory line ItG were maintained by the method of Trager and Jensen (Trager, W.; Jensen, J. Science 1976, 193, 673) using RPM, 1640 supplemented with 10% human serum (a kind gift obtained under ethical consent from the Chemo Day Care department of the Princess Margaret Hospital, Toronto, Canada) and 50 μM hypoxanthine (RPMI-A). The effects of the test compounds on the viability of P. falciparum cultures were determined using a Lactate Dehydrogenase (LDH) enzyme assay specific to the enzyme found in Plasmodium falciparum (pLDH) (Prudhomme, J. G.; Sherman, I. W. J Immunol Methods 1999, 229(1-2), 169; Makler, M. T.; Ries, J. M.; Williams, J. A.; Bancroft, J. E.; Piper, R. C.; Gibbins, B. L.; Hinrichs, D. J. Am J Trop Med Hyg 1993, 48(6), 739). Briefly, compounds to be tested were dissolved in DMSO afford a solution having a concentration of 10 mg/mL. Two-fold serial dilutions were then produced in 50 μL of RPMI-A in a 96 well plate and then 50 μL of parasite culture (2% hematocrit, 2% parasitemia) were added to each well and the plates were then incubated at 37° C. in 95% N2, 3% CO2, and 2% O2 for 72 hr. The contents of the wells were then re-suspended using a multi-channel pipettor and a 15 μL sample was removed from each well and was added to 100 μL of pLDH enzyme assay mixture (Prudhomme, J. G.; Sherman, I. W. J Immunol Methods 1999, 229(1-2), 169). After 1 hr the absorbance of the wells at 650 nm was determined using a ThermoMax microplate reader (Molecular Devices, Sunnyvale, Calif.). The IC50 values of individual compounds were determined using a non-linear regression analysis of the data^19 using the computer program SigmaPlot (Jandel Scientific) and are reported in Table 1. The IC50 values represent the mean±standard error calculated from four independent determinations. To verify if the poor viability of the cultures was related to inhibited merozoite invasion, samples were taken from treated wells and the presence of extracellular merozoites was confirmed by microscopy.

CHO cells = assay: Viability of CHO cells (MTT); type: cell-based; settings: Cricetulus griseus; CHO cells; 48 hrs; MTT; mean of four determinations ± standard error; read-out: IC50 (μM) CHO cells
Description: CHO cells (ATCC, Manassas, Va.) were grown in RPMI-1640 supplemented with 10% fetal calf serum (Sigma, St. Louis, Mo.), 25 mM HEPES and gentimicin (RPMI-10). Cells were seeded in 96 well plates and grown to 50% confluency in 100 μL of RPMI-10 per well prior to the addition of either DMSO alone, or a 10 mg/mL solution of a test compound of the disclosure in DMSO. Compound gradients were prepared by adding 90 μL of RPMI-10 mixed with 10 μL of compound solution to the first well in the series, mixing, transferring 100 μL to the next well, and repeating until the next-to-last well was reached. After 48 hrs, the viability of the cells was determined by discarding the media in the wells and adding 100 μL of 10 mg/mL of 3-[4,5-dimethylthiazol-2-yl]-2,5-diphenyltetrazolium bromide (MTT, Sigma, St. Louis, Mo.) in RPMI-10, incubating the plates for a further hour, and then removing the media and adding 100 μL of DMSO and reading the absorbance at 650 nm (Campling, B. G.; Pym, J.; Galbraith, P. R.; Cole, S. P. Leuk Res 1988, 12(10), 823). The IC50 values of individual compounds were determined using a non-linear regression analysis of the dose-response curve using the computer program SigmaPlot (Jandel Scientific) and are reported in Table 1.

| SMILES | IC50 (P. falciparum) | IC50 (CHO cells) |
| --- | --- | --- |
| Brc1ccc(C[n+]2ccn(Cc3ccccc3)c2)cc1 [QT75, 1-Benzyl-3-(4-bromobenzyl)imidazolium bromide] | 2.9 ± 0.9 µM | 484.5 ± 0.9 µM |
| C[n+]1ccn(CCCCCCCCCCCCCCn2cc[n+](C)c2)c1 [QT107, 1,14-Bis-(3-methylimidazolium-1-yl)tetradecane diiodide] | 0.0032 ± 0.0002 µM | 11 ± 2 µM |
| Clc1cccc(Cn2cc[n+](Cc3cccc(Cl)c3)c2)c1 [QT74, 1,3-Bis-(3-chlorobenzyl)imidazolium bromide] | 3.3 ± 0.4 µM | 334.2 ± 0.4 µM |
| C[n+]1ccn(CCCOc2ccc(OCCCn3cc[n+](C)c3)cc2)c1 [QT123, 1,4-Bis[3-(3-methylimidazolium-1-yl)propoxy]benzene diiodide] | 0.045 ± 0.004 µM | 113 ± 12 µM |
| C[n+]1ccn(CCCCCCCCCCn2cc[n+](C)c2)c1 [QT88, 1,10-Bis-(3-methylimidazolium-1-yl)decane diiodide] | 0.082 ± 0.009 µM | 57 ± 5 µM |
| C[n+]1ccn(CCCCCCCCCCCn2cc[n+](C)c2)c1 [QT118, 1,11-Bis-(3-methylimidazolium-1-yl)undecane diiodide] | 0.0061 ± 0.0006 µM | 42 ± 3 µM |
| Cn1c[n+](C)c(-c2ccccc2)c1-c1ccccc1 [QT104, 1,3-Dimethyl-4,5-diphenyl-1H-imidazolium iodide] | 3.1 ± 0.4 µM | 385 ± 42 µM |
| CCCn1cc[n+](C)c1 [QT73, 3-Methyl-1-propylimidazolium bromide] | 230 ± 83 µM | 998 ± 83 µM |
| C[n+]1ccn(CCCCCCCCn2cc[n+](C)c2)c1 [QT71, 1,8-Bis-(3-methylimidazolium-1-yl)octane diiodide] | 4.7 ± 0.9 µM | 452 ± 49 µM |
| c1ccc2cc(Cn3cc[n+](Cc4ccc5ccccc5c4)c3)ccc2c1 [QT81, 1,3-Bis-(naphthalen-2-yl-methyl)imidazolium bromide] | 0.9 ± 0.4 µM | 27 ± 1 µM |
| C[n+]1ccn(CCCCCCCCCCCCCCCn2cc[n+](C)c2)c1 [QT101, 1,15-Bis-(3-methylimidazolium-1-yl)pentadecane diiodide] | 0.002 ± 0.001 µM | 1.2 ± 0.2 µM |
| O=C(Cn1cc[n+](CC(=O)c2ccc(Cl)cc2)c1)c1ccc(Cl)cc1 [QT91, 1,3-Bis-[2-oxo-2-(4-chlorophenyl)ethyl]imidazolium bromide] | 2.6 ± 0.1 µM | 53 ± 2 µM |
| O=C(Cn1cc[n+](CC(=O)c2ccc(Cc3ccccc3)cc2)c1)c1ccc(Cc2ccccc2)cc1 [QT97, 1,3-Bis-[2-oxo-2-(4-benzylphenyl)ethyl]imidazolium bromide] | 0.5 ± 0.1 µM | 4.3 ± 0.3 µM |
| O=[N+]([O-])c1ccc(Cn2cc[n+](Cc3ccc([N+](=O)[O-])cc3)c2)cc1 [QT85, 1,3-Bis-(4-nitrobenzyl)imidazolium bromide] | 9 ± 2 µM | 227 ± 7 µM |
| c1ccc(Cn2cc[n+](Cc3ccccc3)c2)cc1 [QT68, 1,3-Dibenzylimidazolium bromide] | 16 ± 1 µM | 191 ± 3 µM |
| c1ccc(Cn2c[n+](Cc3ccccc3)c(-c3ccccc3)c2-c2ccccc2)cc1 [QT105, 1,3-dibenzyl-4,5-diphenyl-1H-imidazolium bromide] | 1.4 ± 0.1 µM | 21 ± 2 µM |
| Brc1ccc(Cn2cc[n+](Cc3ccc4ccccc4c3)c2)cc1 [QT95, 1-(4-Bromobenzyl)-3-(naphthalen-2-ylmethyl)imidazolium bromide] | 0.73 ± 0.03 µM | 27 ± 5 µM |
| C[n+]1ccn(CCCCn2cc[n+](C)c2)c1 [QT86, 1,4-Bis-(3-methylimidazolium-1-yl)butane diiodide] | 67 ± 22 µM | 122 ± 3 µM |
| Brc1cccc(Cn2cc[n+](Cc3cccc(Br)c3)c2)c1 [QT83, 1,3-Bis-(3-bromobenzyl)imidazolium bromide] | 1.05 ± 0.06 µM | 132 ± 22 µM |
| Cn1cc[n+](C)c1 [QT70, 1,3-Dimethylimidazolium iodide] | 543 ± 66 µM | 894 ± 19 µM |
| Brc1ccccc1Cn1cc[n+](Cc2ccccc2Br)c1 [QT82, 1,3-Bis-(2-bromobenzyl)imidazolium bromide] | 1.4 ± 0.6 µM | 125 ± 10 µM |
